“And” between values parts separate entries of the source, which are not always exact repeats. Equal entries are not always repeated. Inconclusive results and toxic doses are left out. Cut-off read from the data, not from the text of the source: active = T/C of 150% or more; inactive = T/C below 125%.
Tested on: L1210 leukemia ip in BDF1 mice, survival T/C
Test: NCI In Vivo Anticancer Drug Screen. Data for tumor model L1210 Leukemia (intraperitoneal) in B6D2F1 (BDF1) mice
Details: higher = longer survival
In short: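 Antitumor effect is assessed in tumor-bearing animals. Survival in the compound arm is compared with a vehicle-dosed control arm and expressed as their quotient.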

Measured: T/C

CC[C@](O)(C(=O)O)c1cc2n(c(=O)c1CO)Cc1cc3ccccc3nc1-2
inactive: endpoint: mean survival time, dose: 0.12 mg/kg/injection, schedule: Q#A X Z (ip), vehicle: saline 106 % of control | endpoint: mean survival time, dose: 0.18 mg/kg/injection, schedule: Q01DX009 (ip), vehicle: saline 105 % of control and 108 % of control | endpoint: mean survival time, dose: 0.25 mg/kg/injection, schedule: Q01DX006 (iv), vehicle: saline 107 % of control | endpoint: mean survival time, dose: 0.25 mg/kg/injection, schedule: Q01DX009 (ip), vehicle: saline 98 % of control | endpoint: mean survival time, dose: 0.25 mg/kg/injection, schedule: Q01DX010 (ip), vehicle: saline 117 % of control | endpoint: mean survival time, dose: 0.25 mg/kg/injection, schedule: Q01DX Z (im), vehicle: saline 107 % of control | endpoint: mean survival time, dose: 0.25 mg/kg/injection, schedule: Q01DX Z (sc), vehicle: saline 107 % of control | endpoint: mean survival time, dose: 0.25 mg/kg/injection, schedule: Q## X Z (ip), vehicle: saline 97 % of control | endpoint: mean survival time, dose: 0.25 mg/kg/injection, schedule: Q#A X Z (ip), vehicle: saline 114 % of control | endpoint: mean survival time, dose: 0.35 mg/kg/injection, schedule: Q01DX009 (ip), vehicle: saline 106 % of control and 113 % of control | endpoint: mean survival time, dose: 0.5 mg/kg/injection, schedule: Q01DX006 (iv), vehicle: saline 103 % of control | endpoint: mean survival time, dose: 0.5 mg/kg/injection, schedule: Q01DX009 (ip), vehicle: saline 104 % of control and 112 % of control | endpoint: mean survival time, dose: 0.5 mg/kg/injection, schedule: Q01DX009 (oral), vehicle: water 97 % of control | endpoint: mean survival time, dose: 0.5 mg/kg/injection, schedule: Q01DX Z (im), vehicle: saline 108 % of control | endpoint: mean survival time, dose: 0.5 mg/kg/injection, schedule: Q01DX Z (ip), vehicle: saline 122 % of control | endpoint: mean survival time, dose: 0.5 mg/kg/injection, schedule: Q01DX Z (oral), vehicle: saline 105 % of control | endpoint: mean survival time, dose: 0.5 mg/kg/injection, schedule: Q01DX Z (sc), vehicle: saline 107 % of control | endpoint: mean survival time, dose: 0.5 mg/kg/injection, schedule: Q## X Z (ip), vehicle: saline 103 % of control | endpoint: mean survival time, dose: 0.7 mg/kg/injection, schedule: Q01DX009 (ip), vehicle: saline 106 % of control and 108 % of control | endpoint: mean survival time, dose: 0.75 mg/kg/injection, schedule: Q03DX Z (ip), vehicle: saline 101 % of control | endpoint: mean survival time, dose: 1.0 mg/kg/injection, schedule: Q01DX006 (iv), vehicle: saline 111 % of control | endpoint: mean survival time, dose: 1.0 mg/kg/injection, schedule: Q01DX009 (ip), vehicle: saline 111 % of control and 112 % of control | endpoint: mean survival time, dose: 1.0 mg/kg/injection, schedule: Q01DX009 (oral), vehicle: water 113 % of control | endpoint: mean survival time, dose: 1.0 mg/kg/injection, schedule: Q01DX Z (im), vehicle: saline 113 % of control | endpoint: mean survival time, dose: 1.0 mg/kg/injection, schedule: Q01DX Z (oral), vehicle: saline 117 % of control | endpoint: mean survival time, dose: 1.0 mg/kg/injection, schedule: Q01DX Z (sc), vehicle: saline 113 % of control | endpoint: mean survival time, dose: 1.0 mg/kg/injection, schedule: Q## X Z (ip), vehicle: saline 114 % of control | endpoint: mean survival time, dose: 1.3 mg/kg/injection, schedule: Q## X008 (ip), vehicle: saline 102 % of control | endpoint: mean survival time, dose: 1.5 mg/kg/injection, schedule: Q03DX Z (ip), vehicle: saline 109 % of control | endpoint: mean survival time, dose: 2.0 mg/kg/injection, schedule: Q01DX001 (ip), vehicle: saline 106 % of control and 113 % of control (2×) | endpoint: mean survival time, dose: 2.0 mg/kg/injection, schedule: Q01DX006 (iv), vehicle: saline 114 % of control and 122 % of control | endpoint: mean survival time, dose: 2.0 mg/kg/injection, schedule: Q01DX010 (ip), vehicle: saline 110 % of control | endpoint: mean survival time, dose: 2.0 mg/kg/injection, schedule: Q01DX010 (oral), vehicle: saline 97 % of control | endpoint: mean survival time, dose: 2.0 mg/kg/injection, schedule: Q01DX Z (im), vehicle: saline 116 % of control | endpoint: mean survival time, dose: 2.0 mg/kg/injection, schedule: Q01DX Z (sc), vehicle: saline 114 % of control and 120 % of control | endpoint: mean survival time, dose: 2.0 mg/kg/injection, schedule: Q07DX Z (ip), vehicle: saline 109 % of control | endpoint: mean survival time, dose: 2.5 mg/kg/injection, schedule: Q01DX001 (oral), vehicle: water 111 % of control | endpoint: mean survival time, dose: 2.5 mg/kg/injection, schedule: Q04DX002 (ip), vehicle: saline 100 % of control and 108 % of control | endpoint: mean survival time, dose: 2.5 mg/kg/injection, schedule: Q04DX003 (ip), vehicle: saline 110 % of control | endpoint: mean survival time, dose: 2.5 mg/kg/injection, schedule: Q## X003 (ip), vehicle: saline 105 % of control and 109 % of control | endpoint: mean survival time, dose: 2.5 mg/kg/injection, schedule: Q## X003 (oral), vehicle: saline 107 % of control | endpoint: mean survival time, dose: 2.5 mg/kg/injection, schedule: Q## X003 (oral), vehicle: water 107 % of control | endpoint: mean survival time, dose: 2.5 mg/kg/injection, schedule: Q## X008 (ip), vehicle: saline 98 % of control | endpoint: mean survival time, dose: 2.6 mg/kg/injection, schedule: Q## X024 (ip), vehicle: saline 101 % of control | endpoint: mean survival time, dose: 2.6 mg/kg/injection, schedule: Q## X024 (oral), vehicle: water 100 % of control | endpoint: mean survival time, dose: 3.0 mg/kg/injection, schedule: Q01DX Z (sc), vehicle: saline 120 % of control | endpoint: mean survival time, dose: 3.0 mg/kg/injection, schedule: Q03DX Z (ip), vehicle: saline 118 % of control | endpoint: mean survival time, dose: 4.0 mg/kg/injection, schedule: Q01DX001 (ip), vehicle: saline 105 % of control and 110 % of control and 116 % of control | endpoint: mean survival time, dose: 4.0 mg/kg/injection, schedule: Q01DX009 (oral), vehicle: water 120 % of control | endpoint: mean survival time, dose: 4.0 mg/kg/injection, schedule: Q01DX Z (ip), vehicle: saline 97 % of control and 116 % of control | endpoint: mean survival time, dose: 4.0 mg/kg/injection, schedule: Q01DX Z (oral), vehicle: saline 101 % of control | endpoint: mean survival time, dose: 4.5 mg/kg/injection, schedule: Q01DX006 (iv), vehicle: saline 122 % of control | endpoint: mean survival time, dose: 4.5 mg/kg/injection, schedule: Q01DX Z (im), vehicle: saline 93 % of control | endpoint: mean survival time, dose: 5.0 mg/kg/injection, schedule: Q01DX001 (oral), vehicle: water 115 % of control | endpoint: mean survival time, dose: 5.0 mg/kg/injection, schedule: Q04DX002 (ip), vehicle: saline 110 % of control and 113 % of control | endpoint: mean survival time, dose: 5.0 mg/kg/injection, schedule: Q04DX003 (ip), vehicle: saline 116 % of control | endpoint: mean survival time, dose: 5.0 mg/kg/injection, schedule: Q04DX003 (ip), vehicle: water 118 % of control and 120 % of control | endpoint: mean survival time, dose: 5.0 mg/kg/injection, schedule: Q## X003 (ip), vehicle: saline 114 % of control | endpoint: mean survival time, dose: 5.0 mg/kg/injection, schedule: Q## X003 (oral), vehicle: water 121 % of control | endpoint: mean survival time, dose: 5.0 mg/kg/injection, schedule: Q## X008 (ip), vehicle: saline 105 % of control | endpoint: mean survival time, dose: 5.0 mg/kg/injection, schedule: Q## X024 (ip), vehicle: saline 120 % of control | endpoint: mean survival time, dose: 6.0 mg/kg/injection, schedule: Q01DX001 (ip), vehicle: saline 110 % of control | endpoint: mean survival time, dose: 6.5 mg/kg/injection, schedule: Q01DX006 (iv), vehicle: saline 112 % of control | endpoint: mean survival time, dose: 6.5 mg/kg/injection, schedule: Q01DX Z (sc), vehicle: saline 105 % of control | endpoint: mean survival time, dose: 8.0 mg/kg/injection, schedule: Q01DX001 (ip), vehicle: saline 105 % of control and 115 % of control | endpoint: mean survival time, dose: 8.0 mg/kg/injection, schedule: Q01DX009 (ip), vehicle: saline 120 % of control | endpoint: mean survival time, dose: 10.0 mg/kg/injection, schedule: Q01DX001 (ip), vehicle: saline 112 % of control | endpoint: mean survival time, dose: 10.0 mg/kg/injection, schedule: Q## X008 (ip), vehicle: saline 117 % of control | endpoint: mean survival time, dose: 10.0 mg/kg/injection, schedule: Q## X008 (oral), vehicle: water 121 % of control | endpoint: mean survival time, dose: 19.0 mg/kg/injection, schedule: Q03DX Z (ip), vehicle: saline 121 % of control | endpoint: mean survival time, dose: 50.0 mg/kg/injection, schedule: Q04DX003 (ip), vehicle: saline 105 % of control | endpoint: mean survival time, dose: 80.0 mg/kg/injection, schedule: Q04DX003 (ip), vehicle: saline 114 % of control | endpoint: mean survival time, dose: 160.0 mg/kg/injection, schedule: Q## X003 (ip), vehicle: saline 110 % of control | endpoint: mean survival time, dose: 125.0 micrograms/kg/injection, schedule: Q01DX Z (ip), vehicle: saline 111 % of control | endpoint: mean survival time, dose: 250.0 micrograms/kg/injection, schedule: Q01DX Z (ip), vehicle: saline 114 % of control | endpoint: median survival time, dose: 5.0 mg/kg/injection, schedule: Q04DX003 (ip), vehicle: saline 122 % of control | endpoint: median survival time, dose: 50.0 mg/kg/injection, schedule: Q01DX001 (ip), vehicle: saline 110 % of control and 119 % of control | endpoint: median survival time, dose: 83.3 mg/kg/injection, schedule: Q04DX003 (ip), vehicle: saline 110 % of control and 121 % of control | endpoint: median survival time, dose: 100.0 mg/kg/injection, schedule: Q04DX003 (ip), vehicle: saline 94 % of control and 116 % of control | endpoint: median survival time, dose: 148.0 mg/kg/injection, schedule: Q01DX001 (ip), vehicle: saline 115 % of control

Nc1nc(Cl)c(Cl)nc1N
inactive: endpoint: mean survival time, dose: 100.0 mg/kg/injection, schedule: Q04DX003 (ip), vehicle: Klucel (hydroxypropylcellulose) (HPC) 95 % of control | endpoint: mean survival time, dose: 200.0 mg/kg/injection, schedule: Q04DX003 (ip), vehicle: Klucel (hydroxypropylcellulose) (HPC) 100 % of control | endpoint: mean survival time, dose: 400.0 mg/kg/injection, schedule: Q04DX003 (ip), vehicle: Klucel (hydroxypropylcellulose) (HPC) 95 % of control

CCCCCCNC(=O)c1ccc(C(=O)NCCCCCC)cc1
inactive: endpoint: mean survival time, dose: 100.0 mg/kg/injection, schedule: Q01DX009 (ip), vehicle: Klucel (hydroxypropylcellulose) (HPC) 94 % of control and 101 % of control | endpoint: mean survival time, dose: 200.0 mg/kg/injection, schedule: Q01DX009 (ip), vehicle: Klucel (hydroxypropylcellulose) (HPC) 102 % of control | endpoint: mean survival time, dose: 400.0 mg/kg/injection, schedule: Q01DX009 (ip), vehicle: Klucel (hydroxypropylcellulose) (HPC) 95 % of control and 90 % of control

Reference: PubChem BioAssay AID248 (DTP/NCI, 2004)
